≈ marks a conversion by molar mass, not a printed value. Read-outs that look alike come from different tables or passages of the source.
Columns and labels:
Assay in all cases: MIC determination by in vitro antifungal assay
Format in all cases: cell-based, Candida auris
C. auris AR Bank #381 = tested on: C. auris AR Bank #381
Protocol: (§1) The antifungal agent amphotericin B (AmB) was purchased from VWR (Radnor PA, USA). AmB was dissolved in DMSO at a final concentration of 5 mg/mL and was stored at −20° C., protected from light. Candida albicans American Type Culture Collection (ATCC) 10231 (strain A), C. albicans ATCC 64124 (B), and C. albicans ATCC MYA-2876 (C) were obtained from Utah State University. C. albicans ATCC 90819 (D), C. albicans ATCC MYA-2310 (E), C. albicans ATCC MYA-1237 (F), C. albicans ATCC MYA-1003 (G), Candida glabrata ATCC 2001 (H), Candida krusei ATCC 6258 (I), Candida parapsilosis ATCC 22019 (J), Cryptococcus neoformans ATCC MYA-895 (M), Aspergillus terreus ATCC MYA-3633 (N), and Aspergillus flavus ATCC MYA-3631 (0) were obtained from the American Type Culture Collection (ATCC; Manassas, VA, USA). Aspergillus nidulans ATCC 38163 (P) was obtained from University of Kentucky. Clinically derived Aspergillus fumigatus NRRL 163 (Q), A. fumigatus NRRL 5109 (R), and A. fumigatus NRRL 6113 (S) were obtained from Northern Regional Research Laboratory (NRRL). Candida auris 384 (K), C. auris 390 (L), and fungal strains 381-400 (including 10 C. auris (AR Bank #381-390), 3 Candida duobushaemulonii (AR Bank #391, AR Bank #392, and AR Bank #394), 2 Candida haemulonii (AR Bank #393 and AR Bank #395), 1 Kodameae ohmeri (AR Bank #396), 1 C. krusei (AR Bank #397), 1 Candida lusitaniae (AR Bank #398), and 2 Saccharomyces cerevisiae strains (AR Bank #399 and AR Bank #400)) were part of a larger fungal library from the AR Bank maintained by the Centers for Disease Control and Prevention (CDC; Atlanta, GA, USA). Filamentous fungi and yeasts were cultivated at 35° C. in RPMI 1640 medium (with L-glutamine, without sodium bicarbonate, Sigma-Aldrich, St. Louis, MO) buffered to a pH of 7.0 with 0.165 M morpholinepropanesulfonic acid (MOPS) buffer (Sigma-Aldrich). For cytotoxicity assays, HepG2 and the mouse macrophage cell line J774A.1 were obtained from University of Kentucky. The human embryonic kidney cell line, HEK-293, was bought from the ATCC. Mammalian cells were grown in Dulbecco's Modified Eagle's Medium (DMEM) (from VWR) with 10% fetal bovine serum (FBS) (from VWR) and 1% Pen/Strep (from ATCC). Cell lines were cultured at 37° C. with 5% CO2 and passaged by trypsinization with 0.05% trypsin: 0.53 mM EDTA (from Sigma-Aldrich).
(§2) From the actively growing yeast culture, 100 µL were then transferred to 900 μL of RPMI 1640 medium and re-adjusted to achieve OD600 of 0.12 (˜1×10^6 CFU/mL). The cell suspension was further diluted to achieve 1:100 in RPMI 1640 medium.

C. auris AR Bank #388 = tested on: C. auris AR Bank #388
Protocol: as §1, §2

C. auris AR Bank #382 = tested on: C. auris AR Bank #382
Protocol: as §1, §2

C. auris AR Bank #386 = tested on: C. auris AR Bank #386
Protocol: as §1, §2

C. auris AR Bank #383 = tested on: C. auris AR Bank #383
Protocol: as §1, §2

C. auris AR Bank #387 = tested on: C. auris AR Bank #387
Protocol: as §1, §2

C. auris AR Bank #389 = tested on: C. auris AR Bank #389
Protocol: as §1, §2

C. auris AR Bank #385 = tested on: C. auris AR Bank #385
Protocol: as §1, §2

[1] = Candidozyma auris, C. auris AR Bank # 381 (Table 2B), read-out: MIC
[2] = Candidozyma auris, C. auris AR Bank # 388 (Table 2B), read-out: MIC
[3] = Candidozyma auris, C. auris AR Bank # 382 (Table 2B), read-out: MIC
[4] = Candidozyma auris, C. auris AR Bank # 386 (Table 2B), read-out: MIC
[5] = Candidozyma auris, C. auris AR Bank # 383 (Table 2B), read-out: MIC
[6] = Candidozyma auris, C. auris AR Bank # 387 (Table 2B), read-out: MIC
[7] = Candidozyma auris, C. auris AR Bank # 389 (Table 2B), read-out: MIC
[8] = Candidozyma auris, C. auris AR Bank # 385 (Table 2B), read-out: MIC
[9] = Candidozyma auris, C. auris AR Bank #381, read-out: MIC
[10] = Candidozyma auris, C. auris AR Bank #388, read-out: MIC
[11] = Candidozyma auris, C. auris AR Bank #382, read-out: MIC
[12] = Candidozyma auris, C. auris AR Bank #386, read-out: MIC
[13] = Candidozyma auris, C. auris AR Bank #383, read-out: MIC
[14] = Candidozyma auris, C. auris AR Bank #387, read-out: MIC
[15] = Candidozyma auris, C. auris AR Bank #389, read-out: MIC
[16] = Candidozyma auris, C. auris AR Bank #385, read-out: MIC

| SMILES | MIC (C. auris AR Bank #381; C. auris AR Bank #381) [μg/mL^−1] | MIC (C. auris AR Bank #388; C. auris AR Bank #388) [μg/mL^−1] | MIC (C. auris AR Bank #382; C. auris AR Bank #382) [μg/mL^−1] | MIC (C. auris AR Bank #386; C. auris AR Bank #386) [μg/mL^−1] | MIC (C. auris AR Bank #383; C. auris AR Bank #383) [μg/mL^−1] | MIC (C. auris AR Bank #387; C. auris AR Bank #387) [μg/mL^−1] | MIC (C. auris AR Bank #389; C. auris AR Bank #389) [μg/mL^−1] | MIC (C. auris AR Bank #385; C. auris AR Bank #385) [μg/mL^−1] | other results |
| --- | --- | --- | --- | --- | --- | --- | --- | --- | --- |
| C[C@@H]1[C@H](O)[C@@H](C)/C=C/C=C/C=C/C=C/C=C/C=C/C=C/[C@H](O[C@@H]2O[C@H](C)[C@@H](O)[C@H](N)[C@@H]2O)C[C@@H]2O[C@](O)(C[C@@H](O)C[C@@H](O)[C@H](O)CC[C@@H](O)C[C@@H](O)CC(=O)O[C@H]1C)C[C@H](O)[C@H]2C(=O)O [AmB, amphotericin B, reference compound] | 0.98 | 1.95 | 0.98 | 0.98 | 1.95 | 0.98 | 1.95 | 1.95 | MIC (C. auris AR Bank #381; C. auris AR Bank # 381 (Table 2B)): 0.98 μg/mL^−1; MIC (C. auris AR Bank #388; C. auris AR Bank # 388 (Table 2B)): 1.95 μg/mL^−1; MIC (C. auris AR Bank #382; C. auris AR Bank # 382 (Table 2B)): 0.98 μg/mL^−1; MIC (C. auris AR Bank #386; C. auris AR Bank # 386 (Table 2B)): 0.98 μg/mL^−1; MIC (C. auris AR Bank #383; C. auris AR Bank # 383 (Table 2B)): 1.95 μg/mL^−1; MIC (C. auris AR Bank #387; C. auris AR Bank # 387 (Table 2B)): 0.98 μg/mL^−1; MIC (C. auris AR Bank #389; C. auris AR Bank # 389 (Table 2B)): 1.95 μg/mL^−1; MIC (C. auris AR Bank #385; C. auris AR Bank # 385 (Table 2B)): 1.95 μg/mL^−1 |
| O=C(NNc1cccc(Cl)c1)c1ccc(F)cc1F [Compound 1b] | – | – | – | – | – | – | – | – | MIC (C. auris AR Bank #381; [1]): 3.9 µg/mL (≈ 13.8 µM); MIC (C. auris AR Bank #388; [2]): 3.9 µg/mL (≈ 13.8 µM); MIC (C. auris AR Bank #382; [3]): 3.9 µg/mL (≈ 13.8 µM); MIC (C. auris AR Bank #386; [4]): 7.8 µg/mL (≈ 27.6 µM); MIC (C. auris AR Bank #383; [5]): 15.6 µg/mL (≈ 55.2 µM); MIC (C. auris AR Bank #387; [6]): 7.8 µg/mL (≈ 27.6 µM); MIC (C. auris AR Bank #389; [7]): 3.9 µg/mL (≈ 13.8 µM); MIC (C. auris AR Bank #385; [8]): 3.9 µg/mL (≈ 13.8 µM) |
| O=C(NNc1cc(Cl)cc(Cl)c1)c1ccc(F)cc1F [Compound 1j] | – | – | – | – | – | – | – | – | MIC (C. auris AR Bank #381; [1]): > 31.3 µg/mL; MIC (C. auris AR Bank #388; [2]): > 31.3 µg/mL; MIC (C. auris AR Bank #382; [3]): 15.6 µg/mL (≈ 49.2 µM); MIC (C. auris AR Bank #386; [4]): > 31.3 µg/mL; MIC (C. auris AR Bank #383; [5]): > 31.3 µg/mL; MIC (C. auris AR Bank #387; [6]): > 31.3 µg/mL; MIC (C. auris AR Bank #389; [7]): > 31.3 µg/mL; MIC (C. auris AR Bank #385; [8]): 31.3 µg/mL (≈ 98.7 µM) |
| O=C(NNc1cccc(F)c1)c1ccccn1 [Compound 2a] | 0.49 | 0.49 | 0.98 | 0.49 | 1.95 | 0.49 | 0.12 | 0.98 | – |
| O=C(NNc1cccc(Cl)c1)c1ccccn1 [Compound 2b] | 0.98 | 0.49 | 0.49 | 0.24 | 0.49 | 0.49 | 0.49 | 0.49 | – |
| COc1cccc(NNC(=O)c2ccccn2)c1 [Compound 2c] | 3.9 | 3.9 | 0.98 | 0.49 | 0.98 | 0.49 | 0.49 | 3.9 | – |
| O=C(NNc1ccc(F)cc1)c1ccccn1 [Compound 2d] | – | – | – | – | – | – | – | – | MIC (C. auris AR Bank #381; [9]): 0.98 µg/mL (≈ 4.24 µM); MIC (C. auris AR Bank #388; [10]): 0.98 µg/mL (≈ 4.24 µM); MIC (C. auris AR Bank #382; [11]): 1.95 µg/mL (≈ 8.43 µM); MIC (C. auris AR Bank #386; [12]): 0.49 µg/mL (≈ 2.12 µM); MIC (C. auris AR Bank #383; [13]): 1.95 µg/mL (≈ 8.43 µM); MIC (C. auris AR Bank #387; [14]): 0.98 µg/mL (≈ 4.24 µM); MIC (C. auris AR Bank #389; [15]): 0.49 µg/mL (≈ 2.12 µM); MIC (C. auris AR Bank #385; [16]): 0.98 µg/mL (≈ 4.24 µM) |
| O=C(NNc1ccc(Cl)cc1)c1ccccn1 [Compound 2e] | 1.95 | 1.95 | 3.9 | 0.98 | 1.95 | 1.95 | 0.98 | 1.95 | – |
| COc1ccc(NNC(=O)c2ccccn2)cc1 [Compound 2f] | – | – | – | – | – | – | – | – | MIC (C. auris AR Bank #381; [9]): 1.95 µg/mL (≈ 8.02 µM); MIC (C. auris AR Bank #388; [10]): 0.49 µg/mL (≈ 2.01 µM); MIC (C. auris AR Bank #382; [11]): 1.95 µg/mL (≈ 8.02 µM); MIC (C. auris AR Bank #386; [12]): 0.24 µg/mL (≈ 0.987 µM); MIC (C. auris AR Bank #383; [13]): 1.95 µg/mL (≈ 8.02 µM); MIC (C. auris AR Bank #387; [14]): 0.49 µg/mL (≈ 2.01 µM); MIC (C. auris AR Bank #389; [15]): 0.24 µg/mL (≈ 0.987 µM); MIC (C. auris AR Bank #385; [16]): 0.98 µg/mL (≈ 4.03 µM) |

Reference: patent US20240425464A1, “Substituted Monohydrazides as Potent Antifungal Agents” (University of Kentucky Research Foundation, priority 2023, published 2024)
